Measured values reported in US20260262643A1, “HERBICIDAL BENZOXAZINES” (FMC CORPORATION, priority 2022, published 2026).

What was measured:
barnyardgrass [1] = assay: Test C preemergence; assay type: in vivo, Echinochloa crusgalli
Procedure, shortened: (§1)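 Visual injury ratings on a 0–100 scale (100 = complete control) were made against untreated controls 10 days after treatment in the greenhouse. Compounds, formulated with surfactant in non-phytotoxic solvent, were sprayed on soil preemergence or onto one- to two-leaf plants 2–10 cm tall postemergence.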

blackgrass [2] = assay: Test C preemergence; assay type: in vivo, Alopecurus myosuroides
Procedure, shortened: as §1

corn [3] = assay: Test C preemergence; assay type: in vivo, Zea mays
From the text: (§2) Seeds of plant species selected from barnyardgrass (Echinochloa crusgalli), blackgrass (Alopecurus myosuroides), corn (Zea mays), foxtail, giant (giant foxtail, Setaria faberi), green foxtail (Setaria viridis), goosegrass (Eleusine indica), kochia (Bassia scoparia), oat, wild (wild oat, Avena fatua), pigweed, palmer (palmer amaranth, palmer pigweed, Amaranthus palmeri), Pigweed, Redroot (redroot pigweed, Amaranthus retroflexus), ragweed (common ragweed, Ambrosia artemisiifolia), ryegrass, Italian ([…] ryegrass, Lolium multiflorum), soybean (Glycine max), and wheat (Triticum aestivum) were planted into a blend of loam soil and sand and treated preemergence with a directed soil spray using test chemicals formulated in a non-phytotoxic solvent mixture which included a surfactant. At the same time, plants selected from these crops and weed species and also galium (catchweed bedstraw, Galium aparine) and horseweed (Erigeron canadensis) were planted in pots containing the same blend of loam soil and sand and treated with postemergence applications of test chemicals formulated in the same manner. Plants ranged in height from 2 to 10 cm and were in the one- to two-leaf stage for the postemergence treatment. Treated plants and untreated controls were maintained in a greenhouse for 10 days, after which time all treated plants were compared to untreated controls and visually evaluated for injury. Plant response ratings, summarized in Table C, are based on a 0 to 100 scale where 0 is no effect and 100 is complete control. A dash (-) response means no test result.

green foxtail [4] = assay: Test C preemergence; assay type: in vivo, Setaria viridis
Procedure, shortened: as §1

kochia [5] = assay: Test C preemergence; assay type: in vivo, Bassia scoparia
Procedure, shortened: as §1

oat, wild [6] = assay: Test C preemergence; assay type: in vivo, Avena fatua
From the text: as §2

pigweed, palmer [7] = assay: Test C preemergence; assay type: in vivo, Amaranthus palmeri
Procedure, shortened: as §1

ragweed [8] = assay: Test C preemergence; assay type: in vivo, Ambrosia artemisiifolia
Procedure, shortened: as §1

ryegrass, Italian [9] = assay: Test C preemergence; assay type: in vivo, Lolium multiflorum
Procedure, shortened: as §1

soybean [10] = assay: Test C preemergence; assay type: in vivo, Glycine max
From the text: as §2

wheat [11] = assay: Test C preemergence; assay type: in vivo, Triticum aestivum
From the text: as §2

barnyardgrass [12] = assay: Test C postemergence; assay type: in vivo, Echinochloa crusgalli; details: 10 days, 0 to 100 scale, 0 no effect, 100 complete control
Procedure, shortened: as §1

blackgrass [13] = assay: Test C postemergence; assay type: in vivo, Alopecurus myosuroides; details: 10 days, 0 to 100 scale, 0 no effect, 100 complete control
Procedure, shortened: as §1

corn [14] = assay: Test C postemergence; assay type: in vivo, Zea mays; details: 10 days, 0 to 100 scale, 0 no effect, 100 complete control
From the text: as §2

green foxtail [15] = assay: Test C postemergence; assay type: in vivo, Setaria viridis; details: 10 days, 0 to 100 scale, 0 no effect, 100 complete control
Procedure, shortened: as §1

kochia [16] = assay: Test C postemergence; assay type: in vivo, Bassia scoparia; details: 10 days, 0 to 100 scale, 0 no effect, 100 complete control
Procedure, shortened: as §1

oat, wild [17] = assay: Test C postemergence; assay type: in vivo, Avena fatua; details: 10 days, 0 to 100 scale, 0 no effect, 100 complete control
From the text: as §2

pigweed, palmer [18] = assay: Test C postemergence; assay type: in vivo, Amaranthus palmeri; details: 10 days, 0 to 100 scale, 0 no effect, 100 complete control
Procedure, shortened: as §1

ragweed [19] = assay: Test C postemergence; assay type: in vivo, Ambrosia artemisiifolia; details: 10 days, 0 to 100 scale, 0 no effect, 100 complete control
Procedure, shortened: as §1

ryegrass, Italian [20] = assay: Test C postemergence; assay type: in vivo, Lolium multiflorum; details: 10 days, 0 to 100 scale, 0 no effect, 100 complete control
Procedure, shortened: as §1

soybean [21] = assay: Test C postemergence; assay type: in vivo, Glycine max; details: 10 days, 0 to 100 scale, 0 no effect, 100 complete control
From the text: as §2

wheat [22] = assay: Test C postemergence; assay type: in vivo, Triticum aestivum; details: 10 days, 0 to 100 scale, 0 no effect, 100 complete control
From the text: as §2

galium = assay: Test C postemergence; assay type: in vivo, Galium aparine; details: 10 days, 0 to 100 scale, 0 no effect, 100 complete control
Procedure, shortened: as §1

horseweed = assay: Test C postemergence; assay type: in vivo, Erigeron canadensis; details: 10 days, 0 to 100 scale, 0 no effect, 100 complete control
Procedure, shortened: as §1

[23] = Preemergence, 31 g ai/ha, 0 to 100 scale, 0 no effect, 100 complete control
[24] = Test C, preemergence, 125 g ai/ha, 0 to 100 scale (0 no effect, 100 complete control)

Cc1ccc(-n2cnc(C3(O)CCCC3)n2)cc1C(=O)N1C[C@H](C)Oc2c(Cl)cccc21 [Compound 193]
Plant response rating, Barnyardgrass (barnyardgrass [1]; [23]): 10 | Barnyardgrass plant response rating (barnyardgrass [1]; [24]): 80 | Plant response rating, Blackgrass (blackgrass [2]; [23]): 0 | Blackgrass plant response rating (blackgrass [2]; [24]): 0 | Plant response rating, Corn (corn [3]; [23]): 0 | Corn plant response rating (corn [3]; [24]): 0 | Plant response rating, Foxtail, Green (green foxtail [4]; [23]): 0 | Foxtail, Green plant response rating (green foxtail [4]; [24]): 0 | Plant response rating, Kochia (kochia [5]; [23]): 60 | Kochia plant response rating (kochia [5]; [24]): 100 | Plant response rating, Oat, Wild (oat, wild [6]; [23]): 0 | Oat, Wild plant response rating (oat, wild [6]; [24]): 20 | Plant response rating, Pigweed, Palmer (pigweed, palmer [7]; [23]): 60 | Pigweed, Palmer plant response rating (pigweed, palmer [7]; [24]): 90 | Plant response rating, Ragweed (ragweed [8]; [23]): 0 | Ragweed plant response rating (ragweed [8]; [24]): 60 | Plant response rating, Ryegrass, Italian (ryegrass, Italian [9]; [23]): 60 | Ryegrass, Italian plant response rating (ryegrass, Italian [9]; [24]): 80 | Plant response rating, Soybean (soybean [10]; [23]): 0 | Soybean plant response rating (soybean [10]; [24]): 90 | Plant response rating, Wheat (wheat [11]; [23]): 0 | Wheat plant response rating (wheat [11]; [24]): 0 | Plant response rating, Barnyardgrass (barnyardgrass [12]; 125 g ai/ha, postemergence): 40 | Plant response rating, Barnyardgrass (barnyardgrass [12]; Postemergence, 31 g ai/ha): 10 | Plant response rating, Blackgrass (blackgrass [13]; 125 g ai/ha, postemergence): 60 | Plant response rating, Blackgrass (blackgrass [13]; Postemergence, 31 g ai/ha): 0 | Plant response rating, Corn (corn [14]; 125 g ai/ha, postemergence): 0 | Plant response rating, Corn (corn [14]; Postemergence, 31 g ai/ha): 0 | Plant response rating, Foxtail, Green (green foxtail [15]; 125 g ai/ha, postemergence): 80 | Plant response rating, Foxtail, Green (green foxtail [15]; Postemergence, 31 g ai/ha): 30 | Plant response rating, Kochia (kochia [16]; 125 g ai/ha, postemergence): 80 | Plant response rating, Kochia (kochia [16]; Postemergence, 31 g ai/ha): 20 | Plant response rating, Oat, Wild (oat, wild [17]; 125 g ai/ha, postemergence): 0 | Plant response rating, Oat, Wild (oat, wild [17]; Postemergence, 31 g ai/ha): 0 | Plant response rating, Pigweed, Palmer (pigweed, palmer [18]; 125 g ai/ha, postemergence): 70 | Plant response rating, Pigweed, Palmer (pigweed, palmer [18]; Postemergence, 31 g ai/ha): 20 | Plant response rating, Ragweed (ragweed [19]; 125 g ai/ha, postemergence): 60 | Plant response rating, Ragweed (ragweed [19]; Postemergence, 31 g ai/ha): 50 | Plant response rating, Ryegrass, Italian (ryegrass, Italian [20]; 125 g ai/ha, postemergence): 50 | Plant response rating, Ryegrass, Italian (ryegrass, Italian [20]; Postemergence, 31 g ai/ha): 20 | Plant response rating, Soybean (soybean [21]; 125 g ai/ha, postemergence): 100 | Plant response rating, Soybean (soybean [21]; Postemergence, 31 g ai/ha): 100 | Plant response rating, Wheat (wheat [22]; 125 g ai/ha, postemergence): 10 | Plant response rating, Wheat (wheat [22]; Postemergence, 31 g ai/ha): 10 | Plant response rating, Galium (galium; 125 g ai/ha, postemergence): 100 | Plant response rating, Galium (galium; Postemergence, 31 g ai/ha): 60 | Plant response rating, Horseweed (horseweed; 125 g ai/ha, postemergence): 0 | Plant response rating, Horseweed (horseweed; Postemergence, 31 g ai/ha): 0
